Experimental data taken from patent US20250241892A1, “5-METHOXY-N,N-[…][…] THE TREATMENT OF PSYCHOMOTOR RETARDATION” (GH RESEARCH IRELAND LIMITED, priority 2022, published 2025).

Key:
[1] = system: patients with treatment-resistant major depressive disorder (TRD); assay: Phase 1/2 clinical trial of inhaled 5-MeO-DMT in TRD; settings: for Patients who experienced at least one ADR: n=4; for Patients with MADRS remission: n=4, day seven after dosing
Description: Patients were assigned to different groups. In the context of the present invention, the group who received a single, 12 mg dose and the group who underwent an intra-day individualized dosing regimen (IDR) that allowed for multiple, escalating doses (6 mg, 12 mg and 18 mg) within a single day, driven by the intensity of the patient-reported psychedelic experience are of interest.
This trial was designed in two parts. Part A was an open-label, single-arm, single-dose Phase 1 trial with two dose levels (12 mg (n=4) and 18 mg (n=4)). […] The primary endpoint of Part B was to assess the effects on the severity of depression, as assessed by the proportion of patients in remission on day seven after dosing, defined as a MADRS total score of less than or equal to 10.

[2] = Pharmacokinetics of 5-MeO-DMT and bufotenine after inhalation; format: in vivo, human
Description: Blood samples were obtained at 1; 2; 4; 7; 10; 15; 20; 30; 45 min and 1; 1.5; 2; 3; 4 hours after administration.
PK parameters were generated by algebraic analysis of the concentration versus time plots for each individual. The analysis was carried out using the software Phoenix WinNonlin 6.3.

[3] = TRD, 12 mg n=4, 2 hours after dose, baseline 16
[4] = TRD, 12 mg n=4, 3 hours after dose, baseline 18
[5] = TRD, 12 mg n=4, 3 hours after dose, baseline 25
[6] = TRD, 12 mg n=4, day 1, baseline 12
[7] = TRD, 12 mg n=4, day 1, baseline 13
[8] = TRD, 12 mg n=4, day 1, baseline 16
[9] = TRD, 12 mg n=4, day 1, baseline 25
[10] = TRD, 12 mg n=4, day 7, baseline 12
[11] = TRD, 12 mg n=4, day 7, baseline 13
[12] = TRD, 12 mg n=4, day 7, baseline 16
[13] = TRD, 12 mg n=4, day 7, baseline 25
[14] = TRD, IDR n=8, 2 hours after last dose, baseline 27
[15] = TRD, IDR n=8, 2 hours after last dose, baseline 28
[16] = TRD, IDR n=8, day 1, baseline 25
[17] = TRD, IDR n=8, day 1, baseline 27
[18] = TRD, IDR n=8, day 7, baseline 25
[19] = TRD, IDR n=8, day 7, baseline 27
[20] = TRD, IDR n=8, day 7, baseline 30

In the case of COc1ccc2[nH]cc(CCN(C)C)c2c1 [5-MeO-DMT], the “Changes in safety laboratory analyses, vital signs, psychiatric safety assessments, measures of cognitive function” value ([1]; Part A and Part B) is reported as “No clinically significant changes”, the SAEs reported ([1]; Part A, 12 mg and 18 mg groups) is reported as “No SAEs” and the “Patients who experienced at least one ADR” value ([1]; Part A, 12 mg single dose) is reported as 3 of 4. The “Patients with MADRS remission” value ([1]; Part A, 12 mg) was 50%, the “Patients who experienced at least one ADR” value ([1]; Part A, 18 mg single dose) was 3 of 4 and the “Patients with MADRS remission” value ([1]; Part A, 18 mg) was 25%. For the same compound, the “Outcome of ADRs” value ([1]; Part B, IDR, n=8) was “All ADRs resolved spontaneously”, the SAEs reported ([1]; Part B, IDR, n=8) was “No SAEs” and the “MADRS Suicidal Thoughts, sum of patient scores” value (“MADRS Suicidal Thoughts, sum” for short) ([1]; TRD, 12 mg n=4, 2 hours after dose, baseline 8) was 3. The “MADRS Inner Tension, sum of patient scores” value (“MADRS Inner Tension, sum” below) ([1]; TRD, 12 mg n=4, 2 hours after dose, baseline 13) was 2, the “MADRS Concentration Difficulties, sum of patient scores” value (shortened to “MADRS Concentration Difficulties, sum”) [1, 3] was 7 and the “MADRS Inability to Feel, sum of patient scores” value (from here on “MADRS Inability to Feel, sum”) [1, 3] was 9. For the same compound, the “MADRS Lassitude, percentage improvement” value [1, 3] was 38%, the “MADRS Lassitude, sum of patient scores” value [1, 3] was 10 and the “MADRS Pessimistic Thoughts, percentage improvement” value [1, 3] was 50.00%. For the same compound, the “MADRS Pessimistic Thoughts, sum of patient scores” value (“MADRS Pessimistic Thoughts, sum” below) [1, 3] was 8, the “BPRS Blunted Affect, sum of patient scores” value (from here on “BPRS Blunted Affect, sum”) ([1]; TRD, 12 mg n=4, 3 hours after dose, baseline 11) was 8 and the “BPRS Emotional Withdrawal, sum of patient scores” value (“BPRS Emotional Withdrawal, sum” below) ([1]; TRD, 12 mg n=4, 3 hours after dose, baseline 13) was 11. The “BPRS Tension, sum of patient scores” value ([1]; TRD, 12 mg n=4, 3 hours after dose, baseline 14) was 9, the “BPRS Guilt Feelings, percentage improvement” value [1, 4] was 50.00% and the “BPRS Guilt Feelings, sum of patient scores” value (“BPRS Guilt Feelings, sum” for short) [1, 4] was 9. The “BPRS Anxiety, percentage improvement” value [1, 5] was 56.00%, the “BPRS Anxiety, sum of patient scores” value [1, 5] was 11 and the “MADRS Suicidal Thoughts, sum” value ([1]; TRD, 12 mg n=4, day 1, baseline 8) was 5. For the same compound, the “BPRS Blunted Affect, sum” value ([1]; TRD, 12 mg n=4, day 1, baseline 11) was 6, the “MADRS Reduced Sleep, percentage improvement” value [1, 6] was 17% and the “MADRS Reduced Sleep, sum of patient scores” value (“MADRS Reduced Sleep, sum” below) [1, 6] was 10. The “BPRS Emotional Withdrawal, sum” value [1, 7] was 8, the “MADRS Inner Tension, sum” value [1, 7] was 3 and the “BPRS Tension, sum of patient scores” value ([1]; TRD, 12 mg n=4, day 1, baseline 14) was 6. The “MADRS Concentration Difficulties, sum” value [1, 8] was 2, the “MADRS Inability to Feel, sum” value [1, 8] was 1 and the “MADRS Lassitude, percentage improvement” value [1, 8] was 100%. The “MADRS Lassitude, sum of patient scores” value [1, 8] was 0, the “MADRS Pessimistic Thoughts, sum” value [1, 8] was 7 and the “BPRS Guilt Feelings, sum” value ([1]; TRD, 12 mg n=4, day 1, baseline 18) was 5. The “BPRS Anxiety, percentage improvement” value [1, 9] was 76.00%, the “BPRS Anxiety, sum of patient scores” value [1, 9] was 6 and the “MADRS Suicidal Thoughts, sum” value ([1]; TRD, 12 mg n=4, day 7, baseline 8) was 7. The “BPRS Blunted Affect, sum” value ([1]; TRD, 12 mg n=4, day 7, baseline 11) was 5, the “MADRS Reduced Sleep, percentage improvement” value [1, 10] was 50% and the “MADRS Reduced Sleep, sum” value [1, 10] was 6. The “BPRS Emotional Withdrawal, sum” value [1, 11] was 6, the “MADRS Inner Tension, sum” value [1, 11] was 5 and the “BPRS Tension, sum of patient scores” value ([1]; TRD, 12 mg n=4, day 7, baseline 14) was 6. For the same compound, the “MADRS Concentration Difficulties, sum” value [1, 12] was 3, the “MADRS Inability to Feel, sum” value [1, 12] was 1 and the “MADRS Lassitude, percentage improvement” value [1, 12] was 81%. For the same compound, the “MADRS Lassitude, sum of patient scores” value [1, 12] was 3, the “MADRS Pessimistic Thoughts, percentage improvement” value [1, 12] was 50.00% and the “MADRS Pessimistic Thoughts, sum” value [1, 12] was 8. For the same compound, the “BPRS Guilt Feelings, sum” value ([1]; TRD, 12 mg n=4, day 7, baseline 18) was 5, the “BPRS Anxiety, percentage improvement” value [1, 13] was 76.00% and the “BPRS Anxiety, sum of patient scores” value [1, 13] was 6. For the same compound, the “MADRS Suicidal Thoughts, sum” value ([1]; TRD, IDR n=8, 2 hours after last dose, baseline 11) was 3, the “MADRS Inner Tension, sum” value ([1]; TRD, IDR n=8, 2 hours after last dose, baseline 26) was 11 and the “MADRS Lassitude, percentage improvement” value [1, 14] was 63%. For the same compound, the “MADRS Lassitude, sum of patient scores” value [1, 14] was 10, the “MADRS Pessimistic Thoughts, percentage improvement” value [1, 15] was 75.00% and the “MADRS Pessimistic Thoughts, sum” value [1, 15] was 7. For the same compound, the “MADRS Concentration Difficulties, sum” value ([1]; TRD, IDR n=8, 2 hours after last dose, baseline 30) was 11, the “MADRS Inability to Feel, sum” value ([1]; TRD, IDR n=8, 2 hours after last dose, baseline 36) was 12 and the “BPRS Emotional Withdrawal, sum” value ([1]; TRD, IDR n=8, 3 hours after last dose, baseline 13) was 8. The “BPRS Blunted Affect, sum” value ([1]; TRD, IDR n=8, 3 hours after last dose, baseline 15) was 11, the “BPRS Tension, sum of patient scores” value ([1]; TRD, IDR n=8, 3 hours after last dose, baseline 16) was 11 and the “BPRS Guilt Feelings, sum” value ([1]; TRD, IDR n=8, 3 hours after last dose, baseline 34) was 14. The “BPRS Anxiety, sum of patient scores” value ([1]; TRD, IDR n=8, 3 hours after last dose, baseline 37) was 19, the “MADRS Suicidal Thoughts, sum” value ([1]; TRD, IDR n=8, day 1, baseline 11) was 1 and the “BPRS Emotional Withdrawal, sum” value ([1]; TRD, IDR n=8, day 1, baseline 13) was 8. For the same compound, the “BPRS Blunted Affect, sum” value ([1]; TRD, IDR n=8, day 1, baseline 15) was 8, the “BPRS Tension, sum of patient scores” value ([1]; TRD, IDR n=8, day 1, baseline 16) was 11 and the “MADRS Reduced Sleep, percentage improvement” value [1, 16] was 52%. The “MADRS Reduced Sleep, sum” value [1, 16] was 12, the “MADRS Inner Tension, sum” value ([1]; TRD, IDR n=8, day 1, baseline 26) was 6 and the “MADRS Lassitude, percentage improvement” value [1, 17] was 81%. For the same compound, the “MADRS Lassitude, sum of patient scores” value [1, 17] was 5, the “MADRS Pessimistic Thoughts, sum” value ([1]; TRD, IDR n=8, day 1, baseline 28) was 4 and the “MADRS Concentration Difficulties, sum” value ([1]; TRD, IDR n=8, day 1, baseline 30) was 1. For the same compound, the “BPRS Guilt Feelings, sum” value ([1]; TRD, IDR n=8, day 1, baseline 34) was 11, the “MADRS Inability to Feel, sum” value ([1]; TRD, IDR n=8, day 1, baseline 36) was 2 and the “BPRS Anxiety, sum of patient scores” value ([1]; TRD, IDR n=8, day 1, baseline 37) was 16. For the same compound, the “MADRS Suicidal Thoughts, sum” value ([1]; TRD, IDR n=8, day 7, baseline 11) was 3, the “BPRS Emotional Withdrawal, sum” value ([1]; TRD, IDR n=8, day 7, baseline 13) was 8 and the “BPRS Blunted Affect, sum” value ([1]; TRD, IDR n=8, day 7, baseline 15) was 8. The “BPRS Tension, sum of patient scores” value ([1]; TRD, IDR n=8, day 7, baseline 16) was 10, the “MADRS Reduced Sleep, percentage improvement” value [1, 18] was 64% and the “MADRS Reduced Sleep, sum” value [1, 18] was 9. The “MADRS Inner Tension, sum” value ([1]; TRD, IDR n=8, day 7, baseline 26) was 12, the “MADRS Lassitude, percentage improvement” value [1, 19] was 89% and the “MADRS Lassitude, sum of patient scores” value [1, 19] was 3. For the same compound, the “MADRS Pessimistic Thoughts, sum” value ([1]; TRD, IDR n=8, day 7, baseline 28) was 3, the “MADRS Concentration Difficulties, percentage improvement” value [1, 20] was 70.00% and the “MADRS Concentration Difficulties, sum” value [1, 20] was 9. The “BPRS Guilt Feelings, sum” value ([1]; TRD, IDR n=8, day 7, baseline 34) was 10, the “MADRS Inability to Feel, sum” value ([1]; TRD, IDR n=8, day 7, baseline 36) was 6 and the “BPRS Anxiety, sum of patient scores” value ([1]; TRD, IDR n=8, day 7, baseline 37) was 17. For the same compound, the Detectability in plasma ([2]; 3 hours after inhalation, whole dose range 6, 12, 18 mg) was “no longer detectable” and the “Pharmacokinetic measurements with uptitration dosing schemes” value ([2]; compared with single doses) was “Substantially similar results”.
